Here are results for ten compounds from patent US7439063B2, “Neuroprotective synergy of erythropoietin and insulin-like growth factors” (Burnham Institute for Medical Research, priority 2002, dated 2008).

Where two headings read alike, the source gives them in different places.

In data set [1] the test system is rat primary cerebrocortical cultures. Here is the method: The neuroprotective effects of concurrent EPO and IGF-I administration were compared to individual treatment with EPO or IGF-I in rat primary cerebrocortical cultures.
Neuronal apoptosis was quantified by double labeling for TUNEL reactivity, which in conjunction with condensed morphology is indicative of apoptosis, and the neuron-specific protein microtubule associated protein-2 (MAP2) 16 hours after NMDA insult.
For these experiments, mixed neuronal/glial cerebrocortical cultures were prepared as described previously (Bonfoco et al., supra, 1995); Lei et al., Neuron 8:1087-1099 (1992); and Lipton et al., Nature 364:626-632 (1993)). In brief, cortical tissue from embryonic day 16 Sprague-Dawley rats was dissociated in 0.5% trypsin and plated on poly-L-lysine coated glass coverslips at a density of 10^5 cells per 35 mm culture dish in serum-containing medium. Prior to experimental use, cerebrocortical neurons were kept at 37° C. and 5% CO2 for at least 17 days to permit full expression of NMDA receptors (Lei et al., supra, 1992; and Lipton et al., supra, 1993).
EPO and IGF-I incubations were performed essentially as follows. Human recombinant EPO purchased from Amgen (Epoietin alfa, 2000 IU/ml) was diluted in cell culture medium to a final concentration of 5-10 U/ml. Insulin-like growth factor-I (IGF-I) (Calbiochem; La Jolla, Calif.) was diluted in cell culture medium to a final concentration of 50-100 ng/ml.
NMDA incubations were performed as follows. Cerebrocortical cultures were exposed to 200 μM NMDA in nominally Mg^2+-free Earle's Balanced Salt Solution (EBSS), containing 1.8 mM CaCl2 and 5 μM glycine for 20 minutes. After NMDA exposure, cultures were washed with EBSS and then placed in conditioned tissue culture medium filtered with a […] Acrodisk filter (Perkin-Elmer; Wellesley, Mass.) to remove activated microglia. Where indicated, EPO, IGF-I or both EPO and IGF-I were added to the conditioned media.
Detection of apoptotic neurons was performed essentially as follows. After experimental incubation, cerebrocortical cultures were fixed in PBS (150 mM NaCl, 1.7 mM monobasic sodium phosphate, 9.1 mM dibasic sodium phosphate) with 4% paraformaldehyde, and permeabilized in PBS containing 1% Tween-20. Apoptotic cells were identified by condensed morphology in conjunction with TUNEL using the Apoptosis Detection System (Promega; Madison, Wis.). […]
For PI3-kinase inhibition, cultures were prepared and incubated with NMDA alone, or with EPO or IGF-I individually, or EPO in combination with IGF-I, as described above. […] Neuronal apoptosis was assessed 16 hours after NMDA application by determining the percentage of MAP2-positive cells that were also TUNEL positive, as described above.

Data set [2] deals with p85 subunit of PI3-kinase. Nature of the data set: phosphorylation of the p85 subunit of PI3-kinase (immunoblot). The data set is classed as cell-based, rat. To be noted: IGF-I: maximal phosphorylation; EPO: phosphorylation observed; treated 10, 20 or 30 minutes. Here is the method:
PI3-kinase is activated by phosphorylation of a p85 regulatory subunit, which leads to release of the catalytic subunit (Pleiman et al., Science 263:1609-1612 (1994)). To determine if EPO or IGF-I induces phosphorylation of the p85 subunit of PI3-kinase, rat cerebrocortical cultures were treated with EPO or IGF-I for 10, 20 or 30 minutes, and protein lysates from these cultures analyzed by immunoblotting for the presence of phospho-p85. As shown in FIG. 5B (upper and lower panels), both factors induced p85 phosphorylation in a time-dependent manner. […] Equal protein loading was confirmed by analyzing the amounts of total p85 with a second antibody.
Preparation of total cell extracts for immunoblotting or immunoprecipitation was performed essentially as follows. Cultures were washed briefly in cold PBS. After addition of ice cold lysis buffer (50 mM Tris-Cl, 150 mM NaCl, 1.1 mM PMSF, 10 μg/ml Aprotinin, 1% Triton X-100, pH 8.0, 2 mM Ortho-Vanadate, 0.1% deoxycholate), cells were scraped off the culture dishes. Lysates were transferred to a microcentrifuge tube, vortexed for 15 seconds at 4° C., and cleared by centrifugation for 20 minutes at 14,000×g at […]. Protein concentrations were determined using a BCAProtein assay kit (Pierce; Rockford, Ill.).
Immunoblotting was performed as follows. […]
For orientation: In western blotting, separated proteins are transferred to a membrane and probed.

For another data set, the system named is Akt. The data set is described as follows: Akt phosphorylation on serine-473 (immunoblot). In kind it is cell-based, rat.
For data set [3] the following is noted: naturally occurring peptide; cited from earlier work.
In data set [4] the test system is focal cerebral ischemic damage. The conditions noted are these: administered intranasally; cited from earlier work.
For data set [5], the system named is active caspase-3/XIAP complex. The data set is described as follows: XIAP associated with active caspase-3 (immunoprecipitation, densitometry). To be noted: NMDA exposure alone. The data set is classed as cell-based, rat. The procedure:
In mixed cerebrocortical cultures, EPO is known to induce expression of XIAP and c-IAP, two related factors capable of inhibiting caspase-3 proteolytic activity (Digicaylioglu and Lipton, supra, 2001; and Holcik and Korneluk, Nat. Rev. Mol. Cell. Biol. 2:550-556 (2001)). Here, cerebrocortical cultures were analyzed for the effect of combined EPO and IGF-I treatment on association of XIAP and active caspase-3. Cultures were incubated with EPO, IGF-I and NMDA and, after immunoprecipitation of the active form of caspase-3, immunoprecipitates were probed for the presence of XIAP using western blotting.
To perform these experiments, cerebrocortical cultures were exposed to NMDA, or EPO and IGF-I, or concurrently exposed to NMDA and EPO/IGF-I as described above. Immunoprecipitation of culture lysates was performed using precleared whole-cell lysates, incubated with a 1:100 dilution of antibody specifically recognizing the cleaved form of caspase-3 (Cell Signaling Technologies) for one hour at room temperature, followed by addition of protein A/G-Sepharose beads and immunoprecipitation as described above. The immunoprecipitates were separated by electrophoresis and transferred to a nitrocellulose membrane, which was blotted with a 1:200 dilution of anti-XIAP antibody (Trevigen; Gaithersburg, Md.).

Another data set has as its system caspase-3. Nature of the data set: Caspase-3 (DEVD) cleavage assay in culture lysates. The conditions noted are these: lysates 16 hours after NMDA exposure; simultaneous application or 3 hour preincubation. The data set is classed as cell-based, rat. The procedure: To study the effect of combined EPO/IGF-I treatment on proteolytic activity of caspase-3, protein lysates were prepared from cerebrocortical cultures 16 hours after NMDA exposure, and caspase-3 activity was assayed using the fluorescent caspase-3 substrate, DEVD-7-amino-4-trifluoromethyl-coumarin (DEVD-AFC).
Caspase-3 (DEVD) cleavage assays were performed as described previously. Briefly, cerebrocortical cultures were lysed in cold buffer containing 10% sucrose, 0.1% CHAPS, 100 mM HEPES (pH 7.5), and 10 mM dithiothreitol (DTT). Cytoplasmic protein extracts (200 μg) were incubated for 30 minutes at 37° C. with 80 μM caspase-3 peptide substrate DEVD-AFC (Enzyme Systems Products; Livermore, Calif.). Free fluorescent AFC released by caspase-3 activity was measured on a FluoroMax2 fluorometer at 400 nm excitation and 505 nm emission.

The next data set deals with cerebrocortical neurons. To be noted: 6, 12, 16 and 48 hours after NMDA exposure; mixed neuronal-glial cultures.
Data set [6] in a line: brain delivery of intranasally applied radiolabeled EPO (autoradiography). The data set is classed as in vivo. From the text: As disclosed herein, EPO or an active fragment or analog thereof can cross the blood-brain barrier following intranasal administration, whereby unwanted systemic effects such as increased hematocrit can be avoided.
Another data set concerns the target T1, erythropoietin receptor (Homo sapiens, UniProt P19235).
T1 sequence (P19235 25-249 limits assumed): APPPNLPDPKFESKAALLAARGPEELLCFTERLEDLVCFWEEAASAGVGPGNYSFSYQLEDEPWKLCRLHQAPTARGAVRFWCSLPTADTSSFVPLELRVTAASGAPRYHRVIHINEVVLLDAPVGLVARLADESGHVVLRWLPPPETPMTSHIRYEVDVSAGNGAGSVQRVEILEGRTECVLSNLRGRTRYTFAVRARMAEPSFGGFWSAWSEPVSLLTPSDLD
The conditions noted are these: known erythropoietin mimetic peptides; cited from earlier work.

Experimental for cerebrocortical neurons: The total number of viable MAP2 positive cells was assayed to avoid the effects of secondary necrosis seen at longer survival times (Bonfoco et al., supra, 1995).
Neuronal survival was assayed as the total number of MAP2 positive cells to avoid the confounding effects of secondary necrosis, which can occur at later time points and obfuscate the number of apoptotic cells (Bonfoco et al., supra, 1995).

Regarding “IGF-I: Insulin-like growth factor-I (Calbiochem), also known as somatomedin C, a hormone of 70 amino acids”, the “cell death, treatment at the time of NMDA insult” value in data set [1] (factor applied individually at the time of NMDA insult) is listed as “did not significantly reduce cell death”. For the same compound, the “neuronal viability in control incubations” value in [1] (in the absence of NMDA exposure) is on record as “did not affect neuronal viability”. In data set [1] (preincubation for three hours before NMDA, EPO 10 U/ml, IGF-I 100 ng/ml), the “neuronal apoptosis after preincubation” value is “significantly attenuated neuronal apoptosis”. Besides, the “time to phosphorylation of p85 subunit of PI3-kinase” value in data set [2] was found to be 10 min. Besides, the “phospho-serine-473 Akt” value with Akt (three hour incubation) is “moderate Akt activation”. Further, the pI in [3] is 8.4. Besides, in data set [4], the “protection against focal cerebral ischemic damage” value is recorded as “can protect against focal cerebral ischemic damage”.
Take `CN[C@H](CC(=O)O)C(=O)O` [NMDA, N-methyl-D-aspartate]: the “apoptotic appearance and TUNEL reactivity, % of MAP2-labeled neurons” value in data set [1] (200 μM NMDA for 20 minutes alone, 16 hours after NMDA insult) is on record as 76+7%. Further, the “constitutive levels of Akt phosphorylation” value in the data set on Akt (20-minute exposure to NMDA) is given as “reduced constitutive levels of Akt phosphorylation”. Besides, the “amount of XIAP associated with active caspase-3, NMDA alone” value in [5] was “modest increase”. The “caspase-3-like activity (DEVD cleavage)” value in the data set with caspase-3 is “increased DEVD cleavage”. The “number of surviving neurons in mixed cultures” value in the data set with cerebrocortical neurons is given as “dramatic decrease in the number of surviving neurons”.
“radiolabeled EPO: intranasally applied radiolabeled erythropoietin”: the “distribution after intranasal application” value in data set [6] is “migrated into olfactory tissue and was observed in the rostral migratory stream”; in [6] (listed as radiolabeled erythropoietin) it was “accumulated in brain tissue”.
In general, IC50 refers to the concentration needed to halve the response being measured. As for GGDYHCRMGPLTWVCKPLGG [EMP2], at erythropoietin receptor, the IC50 was 200 nM.
Consider GGLYLCRFGPVTWDCGYKGG [EMP5], for which the IC50 on erythropoietin receptor was 1000 nM.
As to GGCRIGPITWVCGG [AF11154], at erythropoietin receptor, the IC50 was 10000 nM.
“IGF-II: naturally occurring, relatively neutral peptide with 60% amino acid homology to native IGF-I”: in [3], the pI is 6.4.
In the case of GGVYACRMGPITWVCSPLGC [EMP3], on erythropoietin receptor, the IC50 was 300 nM.
Turning to GGTYSCHFGPLTWVCKPQGO [EMP1], the IC50 with erythropoietin receptor is 200 nM.
VGNYMCHFGPITWVCRPGGG [EMP4]: the IC50 on erythropoietin receptor is 500 nM.
